# Like-named read-outs stand apart in the source and are kept apart here.
# Key:
# [1] = Safety: treatment-emergent adverse events (TEAEs) in the pharmacokinetic study; assay type: in vivo, human
# Description: (§1) In this open-label, randomized study, subjects received the following treatments: • Two single oral doses of 100 mg (2×50 mg) Compound A adult immediate release tablet formulation, fasted state, administered on Day 1 and Day 12. • Repeat doses of phenytoin 100 mg TID for 10 days (from Day 3 until the morning of Day 12).
# A total of 15 subjects (83%) reported 101 TEAEs over the course of the study. Three treatment periods were defined: Day 1 to Day 3 (following Compound A dosing on Day 1 and prior to start of phenytoin dosing on Day 3) corresponds to the Compound A treatment period, Day 3 to Day 12 (following phenytoin dosing on Day 3 and prior to Compound A dosing on Day 12) corresponds to the phenytoin treatment period, and Day 12 to the follow-up visit (following Compound A dosing on Day 12) corresponds to the Compound A in combination with phenytoin treatment period.
# [2] = Urinary excretion and renal clearance of Compound A in the pharmacokinetic study; assay type: in vivo, human; conditions: for mean amount excreted unchanged in urine / mean percentage of dose excreted unchanged in urine: over 48 hours following dosing
# Description: as §1
# (§2) Subjects fasted overnight for a minimum of 10 hours prior to dosing on Day 1 and Day 12. An oral dose of the Compound A IR tablet treatment was administered in the morning with approximately 240 mL of water at ambient temperature, to 1 subject per 2 minute intervals. Fasting continued for at least 4 hours following administration. Water was provided as needed until 1 hour pre-dose. Water was allowed beginning 1 hour after the administration of the drug.
# (§3) On Day 3 to Day 11, an oral dose of phenytoin was administered TID with approximately 240 mL of water at ambient temperature, starting at 07:30, 15:30, and 23:30 to 1 subject per 2 minute intervals. On Day 12, an oral dose of phenytoin was administered in the morning with approximately 240 mL of water at ambient temperature, starting at 07:30 (1 hour prior to Compound A dosing) to 1 subject per 2 minute intervals.
# (§4) The direct measurements of this study were the plasma, whole blood, urine, and saliva concentrations of Compound A and plasma concentrations for phenytoin.
# CYP3A4, CYP2D6, CYP2C9 = conditions: has been reported; cited from earlier work
# [3] = Open-label randomized pharmacokinetic drug-drug interaction study: plasma PK of Compound A alone or with phenytoin; assay type: in vivo, human; conditions: for Cmax / AUC / Tmax / AUC(0-t) / AUC(0-inf) / half-life: human, plasma; for Cmax / AUC / Tmax / half-life: 100 mg; for AUC(0-t): read-out: mean AUC0-t; for AUC(0-inf): read-out: mean AUC0-inf; for half-life: read-out: elimination half-life (converted)
# Description: as §1, §2, §3, §4
# The magnitude of DDI was described using GMR (with/without phenytoin) and associated 90% CI of the Cmax, AUC0-t, and AUC0-inf for Compound A.
# [4] = whole study (Compound A, phenytoin, combination)
# [5] = Compound A 100 mg + phenytoin 100 mg TID
# [6] = with phenytoin 100 mg TID for 10 days (Day 12) vs Compound A alone
# [7] = with vs without phenytoin comparison
compound,measurement,setting,value
"O=C1NC(=O)C(c2ccccc2)(c2ccccc2)N1 [phenytoin, reference compound]",incidence of subjects with TEAEs,[1]; phenytoin alone from Day 3 to Day 12,71%
"Cc1cc(S(=O)(=O)Nc2cscn2)c(F)cc1N(C)[C@H]1CCN(Cc2ccccc2)C1 [Compound A, (S)-4-((1-benzylpyrrolidin-3-yl)(methyl)amino)-2-fluoro-5-methyl-N-(thiazol-4-yl)benzenesulfonamide]",incidence of subjects with TEAEs,[1]; Compound A alone on Day 1,39%
same,incidence of subjects with TEAEs,[1]; Compound A in combination with phenytoin on Day 12,65%
same,deaths or SAEs,[1]; [4],No deaths or SAEs occurred
same,subjects reporting a severe TEAE,[1]; [4],None
same,mean amount excreted unchanged in urine,[2]; [5],57186 ng
same,mean percentage of dose excreted unchanged in urine,[2]; [5],0.06%
same,mean amount excreted unchanged in urine,[2]; Compound A 100 mg alone,71103 ng
same,mean percentage of dose excreted unchanged in urine,[2]; Compound A 100 mg alone,0.07%
same,CL renal,"[2]; human, urine, oral, both treatments: presence (Day 12) or absence (Day 1) of phenytoin",0.05 to 0.0667 mL/min
same,CLr GMR,[2]; with/without phenytoin,100.25%
same,metabolizing CYP enzymes,"CYP3A4, CYP2D6, CYP2C9","metabolized by CYP3A4, CYP2D6, and to a lesser extent CYP2C9"
same,effect of phenytoin 100 mg TID on Compound A total systemic exposure,[3]; 90% CI of GMR for AUC0-t and AUC0-inf within no effect boundaries 80.00-125.00%,did not affect
same,apparent clearance,[3]; Compound A alone,5.4 L/h
same,apparent volume of distribution,[3]; Compound A alone,89 L
same,apparent clearance,[3]; Compound A with phenytoin,5.7 L/h
same,apparent volume of distribution,[3]; Compound A with phenytoin,65 L
same,increase of peak plasma concentration (Cmax),[3]; co-administered with phenytoin 100 mg TID x 10 days vs Compound A alone,approximately 22%
same,Cmax,"[3]; oral, Compound A 100 mg alone, full sampling, read-out: mean Cmax",3300 ng/mL
same,AUC,"[3]; oral, Compound A 100 mg alone, truncated sampling",19900 ng·h/mL
same,Cmax,"[3]; oral, Compound A 100 mg alone, truncated sampling, read-out: Cmax",3220 ng/mL
same,Tmax,"[3]; oral, Compound A 100 mg alone, truncated sampling, read-out: Tmax",1 h
same,Cmax,"[3]; oral, Compound A 100 mg with phenytoin 100 mg TID x 10 days, full sampling, read-out: mean Cmax",3720 ng/mL
same,AUC,"[3]; oral, Compound A with phenytoin 100 mg TID x 10 days, truncated sampling",18600 ng·h/mL
same,Cmax,"[3]; oral, Compound A with phenytoin 100 mg TID x 10 days, truncated sampling, read-out: Cmax",3680 ng/mL
same,Tmax,"[3]; oral, Compound A with phenytoin 100 mg TID x 10 days, truncated sampling, read-out: Tmax",1 h
same,AUC(0-t),"[3]; oral, Compound A 100 mg + phenytoin 100 mg TID x 10 days, full sampling",17800 ng·h/mL
same,AUC(0-inf),"[3]; oral, Compound A 100 mg + phenytoin 100 mg TID x 10 days",18000 ng·h/mL
same,AUC(0-t),"[3]; oral, Compound A 100 mg alone, full sampling",19100 ng·h/mL
same,AUC(0-inf),"[3]; oral, Compound A 100 mg alone",19800 ng·h/mL
same,Tmax,"[3]; po, Compound A 100 mg single oral dose alone (Day 1), fasted, full sampling, read-out: time to peak plasma concentrations (Tmax)",~1 h
same,Tmax,"[3]; po, Compound A 100 mg single oral dose with phenytoin 100 mg TID for 10 days (Day 12), full sampling, read-out: time to peak plasma concentrations (Tmax)",~1 h
same,half-life,"[3]; po, Compound A alone",10 h
same,half-life,"[3]; po, Compound A with phenytoin",8 h
same,difference in AUC0-inf,[3]; [6],~7%
same,difference in AUC0-t,[3]; [6],approximately 4%
same,intra-subject CV % of AUC0-inf,[3]; [7],22%
same,intra-subject CV % of AUC0-t,[3]; [7],26%
same,intra-subject CV % of Cmax,[3]; [7],53%
same,AUC0-inf GMR,"[3]; with/without phenytoin, 90% CI 81.75-105.23%",92.75%
same,AUC0-t GMR,"[3]; with/without phenytoin, 90% CI 82.54-111.67%",96.01%
same,Cmax geometric mean ratio (GMR),"[3]; with/without phenytoin, 90% CI 90.94-162.38%",121.52%
